Measurements: ChEMBL document CHEMBL5523684, “Development of a tetrahydroindazolone-based HDAC6 inhibitor with in-vivo anti-arthritic activity” (Bioorg Med Chem, 2024)

What was measured:
[1] = C0 in monkey at 0.5 mg/kg, iv; format: ADME, organism-based, Macaca mulatta; conditions: rhesus monkey, in vivo
[2] = Clearance in dog at 0.5 mg/kg, iv; format: ADME, organism-based, Canis lupus familiaris; conditions: in vivo
[3] = target: T1, Histone deacetylase 11 (Homo sapiens, UniProt Q96DB2); test: Inhibition of human recombinant HDAC11 using fluorescent peptide p53 (379 to 382 residues) RHKK(Ac) as substrate by fluorescence based analysis
T1 sequence (Q96DB2 whole entry): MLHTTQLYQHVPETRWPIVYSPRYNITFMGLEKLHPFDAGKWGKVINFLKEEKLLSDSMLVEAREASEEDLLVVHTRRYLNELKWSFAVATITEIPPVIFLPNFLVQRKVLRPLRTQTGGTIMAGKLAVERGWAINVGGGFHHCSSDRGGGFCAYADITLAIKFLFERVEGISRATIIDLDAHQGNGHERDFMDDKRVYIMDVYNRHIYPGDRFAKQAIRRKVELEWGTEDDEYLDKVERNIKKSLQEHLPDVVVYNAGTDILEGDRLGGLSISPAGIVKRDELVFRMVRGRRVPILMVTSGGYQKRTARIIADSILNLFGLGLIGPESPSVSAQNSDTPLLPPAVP

[4] = AUClast in mouse at 10 mg/kg, iv; format: ADME, organism-based; conditions: in vivo
[5] = target: T2, Histone deacetylase 7 (Homo sapiens, UniProt Q8WUI4); test: Inhibition of human recombinant HDAC7 using Boc-Lys(tri-fluoroacetyl)-AMC as substrate by fluorescence based analysis
T2 sequence (Q8WUI4 whole entry): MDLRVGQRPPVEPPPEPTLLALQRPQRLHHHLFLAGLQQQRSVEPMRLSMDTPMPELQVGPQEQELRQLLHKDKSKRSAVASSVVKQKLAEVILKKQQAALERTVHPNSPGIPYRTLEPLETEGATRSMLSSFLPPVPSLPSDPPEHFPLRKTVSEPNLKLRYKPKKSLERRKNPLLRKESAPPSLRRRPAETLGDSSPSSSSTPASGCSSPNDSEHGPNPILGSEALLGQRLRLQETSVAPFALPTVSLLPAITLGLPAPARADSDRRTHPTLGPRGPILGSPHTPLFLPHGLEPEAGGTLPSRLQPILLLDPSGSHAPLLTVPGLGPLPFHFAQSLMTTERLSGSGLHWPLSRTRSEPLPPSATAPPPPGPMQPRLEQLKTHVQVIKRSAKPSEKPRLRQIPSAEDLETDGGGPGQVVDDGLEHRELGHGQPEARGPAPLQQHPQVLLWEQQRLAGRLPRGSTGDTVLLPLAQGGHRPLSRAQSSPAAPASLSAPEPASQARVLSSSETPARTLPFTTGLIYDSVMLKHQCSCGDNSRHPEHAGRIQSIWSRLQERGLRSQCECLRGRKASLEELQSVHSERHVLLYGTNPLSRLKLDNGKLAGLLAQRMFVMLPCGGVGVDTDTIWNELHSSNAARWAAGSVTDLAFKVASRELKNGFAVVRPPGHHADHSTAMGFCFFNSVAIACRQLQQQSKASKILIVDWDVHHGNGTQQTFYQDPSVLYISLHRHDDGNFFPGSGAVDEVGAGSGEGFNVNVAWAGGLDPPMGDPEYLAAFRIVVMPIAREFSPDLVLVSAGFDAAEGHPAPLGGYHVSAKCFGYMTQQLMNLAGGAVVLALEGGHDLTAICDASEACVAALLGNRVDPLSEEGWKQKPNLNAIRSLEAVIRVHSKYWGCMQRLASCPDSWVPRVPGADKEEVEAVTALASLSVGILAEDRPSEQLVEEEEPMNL

[6] = target: Histone deacetylase 2 (Homo sapiens, UniProt Q92769); test: Inhibition of human recombinant HDAC2 using fluorescent peptide p53 (379 to 382 residues) RHKK(Ac) as substrate by fluorescence based analysis
Chain of Histone deacetylase 2 (Q92769 whole entry, the tested form may be a part): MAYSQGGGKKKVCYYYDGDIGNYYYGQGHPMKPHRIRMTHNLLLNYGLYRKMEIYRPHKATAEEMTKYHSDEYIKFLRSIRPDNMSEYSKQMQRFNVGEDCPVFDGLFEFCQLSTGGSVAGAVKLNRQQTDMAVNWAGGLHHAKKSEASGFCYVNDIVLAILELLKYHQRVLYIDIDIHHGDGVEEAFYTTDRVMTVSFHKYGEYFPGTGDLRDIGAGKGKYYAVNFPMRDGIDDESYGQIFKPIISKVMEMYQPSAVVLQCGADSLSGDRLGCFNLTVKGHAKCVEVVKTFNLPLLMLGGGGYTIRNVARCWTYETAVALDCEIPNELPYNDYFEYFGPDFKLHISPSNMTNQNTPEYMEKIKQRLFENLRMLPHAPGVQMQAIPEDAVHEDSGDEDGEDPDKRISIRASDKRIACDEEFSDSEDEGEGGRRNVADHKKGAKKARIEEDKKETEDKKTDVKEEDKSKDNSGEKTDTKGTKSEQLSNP

[7] = species: Homo sapiens; test: Selectivity index, ratio of IC50 for inhibition of his-tagged human recombinant HDAC1 using fluor de lys-SIRT1 as substrate to IC50 for inhibition of N-terminal GST-tagged human recombinant HDAC6 expressed in Spodoptera frugiperda
[8] = Bioavailability in monkey at 0.5 mg/kg, iv; format: ADME, organism-based, Macaca mulatta; conditions: rhesus monkey, in vivo
[9] = target: T3, Polyamine deacetylase HDAC10 (Homo sapiens, UniProt Q969S8); test: Inhibition of human recombinant HDAC10 using fluorescent peptide p53 (379 to 382 residues) RHKK(Ac) as substrate by fluorescence based analysis
T3 sequence (Q969S8 whole entry): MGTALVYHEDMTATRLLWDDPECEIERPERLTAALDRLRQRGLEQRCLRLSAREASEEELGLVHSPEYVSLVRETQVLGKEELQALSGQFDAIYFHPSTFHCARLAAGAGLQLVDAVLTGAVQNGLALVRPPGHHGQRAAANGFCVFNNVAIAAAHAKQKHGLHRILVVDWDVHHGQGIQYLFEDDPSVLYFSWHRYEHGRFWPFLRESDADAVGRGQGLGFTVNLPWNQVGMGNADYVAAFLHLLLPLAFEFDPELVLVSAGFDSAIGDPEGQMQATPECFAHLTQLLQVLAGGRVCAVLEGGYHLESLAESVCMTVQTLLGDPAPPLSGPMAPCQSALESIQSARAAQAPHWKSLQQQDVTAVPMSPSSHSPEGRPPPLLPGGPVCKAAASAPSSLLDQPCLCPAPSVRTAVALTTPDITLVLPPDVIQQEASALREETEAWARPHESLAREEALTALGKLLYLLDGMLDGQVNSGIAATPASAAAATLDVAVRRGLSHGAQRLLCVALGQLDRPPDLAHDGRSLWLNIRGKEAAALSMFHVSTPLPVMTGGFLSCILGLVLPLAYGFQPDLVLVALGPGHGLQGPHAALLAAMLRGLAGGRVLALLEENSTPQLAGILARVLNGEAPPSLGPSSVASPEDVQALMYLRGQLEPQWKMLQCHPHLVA

[10] = target: Histone deacetylase 3 (Homo sapiens, UniProt O15379)
Chain of Histone deacetylase 3 (O15379 whole entry, the tested form may be a part): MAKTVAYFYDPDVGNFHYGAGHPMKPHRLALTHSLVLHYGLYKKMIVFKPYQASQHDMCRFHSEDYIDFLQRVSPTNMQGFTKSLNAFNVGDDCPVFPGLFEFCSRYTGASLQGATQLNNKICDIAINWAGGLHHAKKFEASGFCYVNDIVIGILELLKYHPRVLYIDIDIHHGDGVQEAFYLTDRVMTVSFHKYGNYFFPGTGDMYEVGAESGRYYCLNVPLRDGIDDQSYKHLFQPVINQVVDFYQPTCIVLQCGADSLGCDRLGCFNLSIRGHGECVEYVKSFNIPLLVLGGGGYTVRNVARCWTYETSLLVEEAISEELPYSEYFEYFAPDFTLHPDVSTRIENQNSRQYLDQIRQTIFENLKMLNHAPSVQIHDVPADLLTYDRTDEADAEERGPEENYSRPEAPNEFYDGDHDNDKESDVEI

[11] = target: T4, Histone deacetylase 8 (Homo sapiens, UniProt Q9BY41); test: Inhibition of human recombinant HDAC8 using fluorescent peptide p53 (379 to 382 residues) (RHK(Ac)K(Ac)) as substrate by fluorescence based analysis
T4 sequence (Q9BY41 whole entry): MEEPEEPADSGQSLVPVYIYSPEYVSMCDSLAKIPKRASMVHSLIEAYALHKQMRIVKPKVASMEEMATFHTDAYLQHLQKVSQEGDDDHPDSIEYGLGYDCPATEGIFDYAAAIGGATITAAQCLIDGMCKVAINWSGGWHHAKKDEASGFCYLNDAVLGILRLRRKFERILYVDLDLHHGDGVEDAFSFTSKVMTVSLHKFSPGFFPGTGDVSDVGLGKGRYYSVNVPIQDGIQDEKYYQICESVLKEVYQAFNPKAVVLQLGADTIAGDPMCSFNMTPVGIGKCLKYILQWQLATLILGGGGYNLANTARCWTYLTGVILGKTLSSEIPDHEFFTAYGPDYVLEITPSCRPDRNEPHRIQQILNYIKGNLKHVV

[12] = target: Histone deacetylase 1 (Homo sapiens, UniProt Q13547); test: Inhibition of human recombinant HDAC1 using fluorescent peptide p53 (379 to 382 residues) RHKK(Ac) as substrate by fluorescence based analysis
Chain of Histone deacetylase 1 (Q13547 whole entry, the tested form may be a part): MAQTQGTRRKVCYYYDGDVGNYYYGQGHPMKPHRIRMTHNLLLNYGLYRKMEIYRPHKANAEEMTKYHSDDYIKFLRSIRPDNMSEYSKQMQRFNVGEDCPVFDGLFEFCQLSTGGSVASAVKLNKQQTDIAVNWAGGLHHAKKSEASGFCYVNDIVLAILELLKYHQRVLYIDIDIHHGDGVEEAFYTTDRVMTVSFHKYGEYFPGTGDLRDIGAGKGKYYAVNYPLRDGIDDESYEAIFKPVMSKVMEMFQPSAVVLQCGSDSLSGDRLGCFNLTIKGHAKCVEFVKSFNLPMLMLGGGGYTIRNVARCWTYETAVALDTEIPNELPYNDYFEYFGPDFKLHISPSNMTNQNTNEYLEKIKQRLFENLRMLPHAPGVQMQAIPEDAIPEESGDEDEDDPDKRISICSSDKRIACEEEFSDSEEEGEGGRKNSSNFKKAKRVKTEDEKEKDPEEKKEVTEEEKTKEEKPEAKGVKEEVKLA

SMILES	C0 [1] [ng/mL]	clearance [2] [mL/min/kg]	IC50 [3] [µM]	AUC(0-t) [4] [ng·h/mL]	IC50 [5] [µM]	IC50 [6] [µM]	Ratio IC50 [7]	bioavailability [8] [%]	IC50 [9] [µM]	IC50 [10] [µM]	IC50 [11] [µM]	IC50 [12] [µM]
CC1(C)CC(=O)c2c(C(F)(F)F)nn(Cc3ccc(C(=O)NO)cc3)c2C1	1040	18.8	> 20	1200	> 20	> 20	217	11.2	> 20	> 20	> 20	> 20
O=C(NO)c1ccc(Cn2c3c(c4ccccc42)C(=O)CCC3)cc1	–	–	> 20	–	> 20	> 20	168	–	> 20	> 20	> 20	18.1
